Test results from patent US12121510B2 (Cedars-Sinai Medical Center, priority 2016, dated 2024).
Read-outs that look alike come from different tables or passages of the source.

What was measured:
[1] = tested on: OV90 and OVCA 433; experiment: Growth IC50 in ovarian cancer cell strains; type: cell-based, human; conditions: 72 h; read-out: IC50 across ovarian cancer cell strains OV90 and OVCA 433
Protocol: (§1) OV90 and OVCA433 are grown in vitro according to their standard culturing conditions, and an assay such as the crystal violet assay is performed.

[2] = tested on: renal cancer and B-cell lymphoma cell lines; experiment: Growth IC50 in renal cancer and B-cell lymphoma panel; type: cell-based, human; conditions: all cancer cell lines of Example 16; 72 h; read-out: IC50 across renal cancer and B-cell lymphoma cell lines
Protocol: Cell lines are cultured as follows. […] 5,000 cells/well renal cancer cells and 10,000 cells/well lymphoma cells are seeded in 96 well plates in 100 microliter medium/per well for 24 h. […] Renal cancer cells are fixed with 3.7% paraformaldehyde for 15 minutes and are stained with Crystal violet solution (0.5% in 25% methanol) for 30 minutes. After rinsing with water cell layers are dried and decolorized with Sorenson citrate with shaking for 20 minutes. Light absorption of the extracted supernatant is read at 595 nm. Lymphoma cell growth is evaluated using MTT and cells are incubated for 4 hours. 100 microliters of isopropanol is added, and the extracted supernatant fraction is read at absorption maximum of 595 nm.

[3] = tested on: Namalwa xenograft tumors; experiment: Burkitt lymphoma xenograft tumor growth; type: in vivo; conditions: Example 5; NCr Nu/Nu (10 μM) and NOD-SCID (5 μM) mice; 2 times a week; versus CIS or vehicle, p<0.05
Protocol: Representative results are illustrated in FIG. 5. DZ-CIS is administered to tumors as follows. 15 mice each (NCr Nu/Nu, right panel of FIG. 5, and NOD-SCID, left panel) are injected with Human Burkitt lymphoma cell line, Namalwa cells (10^3), producing 4 xenograft tumors per mouse.

[4] = tested on: human kidney carcinoma cell lines (ACHN, Caki-1, 0-786, SKRC); experiment: Growth IC50 in kidney carcinoma cell line panel; type: cell-based; conditions: all kidney cancer cell lines; 72 hours; read-out: IC50 across kidney cancer cell lines
Protocol: (§2) The crystal violet assay is performed as follows, unless otherwise noted. Cell lines are supplemented with RPMI 1640 medium, 10% fetal bovine serum, 1% PenStrep, and placed in a humidified atmosphere containing 5% CO2 at 37° C. 5,000 cells/well renal cancer cells and 10,000 cells/well lymphoma cells are seeded in 96 well plates in 100 microliter medium/per well for 24 h. […] Renal cancer cells are fixed with 3.7% paraformaldehyde for 15 minutes and are stained with Crystal violet solution (0.5% in 25% methanol) for 30 minutes. After rinsing with water cell layers are dried and decolorized with Sorenson citrate with shaking for 20 minutes. Light absorption of the extracted supernatant is read at 595 nm. Lymphoma cell growth was evaluated using MTT and cells are incubated for 4 hours. 100 microliters of isopropanol is added, and the extracted supernatant fraction is read at absorption maximum of 595 nm.
The significance for all results was p<0.0001.

[5] = tested on: normal mouse kidney and liver; experiment: Immunohistochemical staining of normal kidney and liver; type: in vivo; conditions: mice harbored with human Burkitt's lymphoma
Source text: These normal kidney and liver tissues were obtained from mice harbored with human Burkitt's lymphoma.

[6] = tested on: 95D; experiment: Cell proliferation IC50, Crystal Violet assay; type: cell-based, human; conditions: 95D (Met); 72 h; single agent; mean ± SEM
Source text: (§3) Exemplary Embodiments are generally performed as follows, unless otherwise noted. Simvastatin is purchased from Ark Pharm, Inc. (Arlington Heights, IL). Cisplatin (CIS) is purchased from MedKoo Biosciences, Inc. (Chapel Hill, NC). Dihydroartemisinin is purchased from TCI America (Portland, OR). All other chemicals and reagents are purchased from standard sources such as Sigma-Aldrich and/or VWR and are of highest quality available. Puromycin dihydrochloride was purchased from Alfa Aesar (Tewksbury, MA). Deionized water ([…]) used for making solutions is obtained from Milli-Q Direct Ultrapure Water System from Millipore (Billerica, MA, USA). All intermediates are characterized by 1H NMR and mass analysis and the purity of compounds are analyzed by HPLC. 1H NMR data are collected on Bruker 400 MHz spectrometers using standard parameters; chemical shifts are reported in ppm (δ) in reference to residual non-deuterated solvent. ESI mass spectroscopy analysis is performed using a Thermo Fisher LTQ Orbitrap Elite system. IC50 is the half maximal inhibitory concentration and determined is determined by crystal violet assay unless otherwise noted.
(§4) H446 is a SCLC cell line. […] Drugs tested and compared include CIS and DZ-CIS ester. Each drug is used as single agent.

[7] = tested on: YTMLC; experiment: Cell proliferation IC50, Crystal Violet assay; type: cell-based, human; conditions: 72 h, single agent, mean ± SEM
Source text: as §3, §4

[8] = tested on: 95C; experiment: Cell proliferation IC50, Crystal Violet assay; type: cell-based, human; conditions: 95C (Non-Met); 72 h; single agent; mean ± SEM
Source text: as §3, §4

[9] = tested on: H446; experiment: Cell proliferation IC50, Crystal Violet assay; type: cell-based, human; conditions: SCLC H446; 72 h; single agent; mean ± SEM
Source text: as §3, §4

[10] = tested on: A549/DDP (Cisplatin Resistant); experiment: Cell proliferation IC50, Crystal Violet assay; type: cell-based, human; conditions: 72 h
[11] = tested on: OVCA 433; experiment: Ovarian cancer cell growth IC50 (crystal violet); type: cell-based, human
Source text: as §3
(§5) Standard cell culture conditions typically are RPMI 1640 medium, 10% fetal bovine serum, 1% PenStrep, and are performed in a humidified atmosphere containing 5% CO2 at 37° C. Generally, 5,000 cells/well-10,000 cells/well are seeded in 96 well plates in 100 microliter medium/per well for 24 h, or as described in Example 16, unless otherwise noted. Certain cells require specialized media, growth factors, antibiotics, or culture condition adjustments, as will be apparent to a person of ordinary skill in the art.
as §1

[12] = tested on: OV90; experiment: Ovarian cancer cell growth IC50 (crystal violet); type: cell-based, human
Source text: as §3, §5, §1

[13] = tested on: Ramos, a B-cell lymphoma, cultured as 3-D spheroids; experiment: Cell viability IC50 in 3-D spheroids; type: cell-based, human; conditions: Ramos 3-D spheroids; 72 h; single agent
Source text: as §3
Cancer cells were Ramos, a B-cell lymphoma, cultured as 3-D spheroids, cultured according to their standard culturing conditions.

[14] = tested on: PC3; experiment: Cancer cell growth IC50 (crystal violet); type: cell-based; conditions: Example 15
Source text: as §3, §2, §5

[15] = tested on: C4-2; experiment: Cancer cell growth IC50 (crystal violet); type: cell-based; conditions: Example 15; C4-2
Source text: as §3, §2, §5

[16] = tested on: H358; experiment: Cancer cell growth IC50 (crystal violet); type: cell-based; conditions: Example 15
Source text: as §3, §2, §5

[17] = tested on: HepG2; experiment: Cancer cell growth IC50 (crystal violet); type: cell-based; conditions: Example 15
Source text: as §3, §2, §5

[18] = tested on: MCF-7; experiment: Cancer cell growth IC50 (crystal violet); type: cell-based; conditions: Example 15
Source text: as §3, §2, §5

[19] = tested on: U87; experiment: Cancer cell growth IC50 (crystal violet); type: cell-based; conditions: Example 15
Source text: as §3, §2, §5

`N.N.[Cl][Pt][Cl]` [CIS, cis-diamminedichloridoplatinum (II)] was tested, and the IC50 [1] was over 64 µM, the IC50 [2] was over 64 µM and the “Tumor volume, Namalwa xenograft” value [3] was “not CIS alone”. For the same compound, the IC50 [4] was over 64 µM, the “Apoptosis markers (cleaved caspas-3 and M30) / damage in normal kidney and liver” value [5] was “elevated” and the IC50 [6] was over 100 µM. The IC50 [7] was 16.2 ± 1 µM, the IC50 [8] was 12.7 ± 1 µM and the IC50 [9] was 107.3 ± 1 µM. The IC50 ([10]; A549/DDP (Cisplatin Resistant), single agent, mean ± SEM, read-out: IC50) was 90 ± 1 µM, the IC50 ([10]; read-out: IC50 of CIS, Mean, A549/DDP, CIS alone) was 87.6 µM and the IC50 ([11]; Example 15, OV433) was over 64 µM. The IC50 ([11]; OVCA 433, 72 h) was over 64 µM, the IC50 ([12]; 72 h) was over 64 µM and the IC50 ([12]; Example 15) was over 64 µM. The IC50 [13] was 81.5 µM, the IC50 [14] was 48.7 µM and the IC50 [15] was over 64 µM. For the same compound, the IC50 [16] was over 64 µM, the IC50 [17] was over 64 µM and the IC50 [18] was 39.5 µM. The IC50 [19] was over 64 µM.
